Data taken from ChEMBL document CHEMBL1147163 (Bioorg Med Chem, 2007).

Assay: Dissociation constant, pKa of the compound
Format: physicochemical

| Structure (SMILES) | pKa |
| --- | --- |
| CC(=O)CC(c1ccccc1)c1c(S)c2ccccc2oc1=O (stereo unspecified) | 6.6 |

Assay: Inhibition of rat microsomal VKER

| Structure (SMILES) | IC50 [µM] |
| --- | --- |
| CC(=O)CC(c1ccccc1)c1c(O)oc2cc(O)ccc2c1=O (stereo unspecified) | 250 |
| CC(=O)CC(c1ccccc1)c1c(O)oc2ccc(O)cc2c1=O (stereo unspecified) | 12.8 |
| CC(=O)CC(c1ccccc1)c1c(SC[C@@H](NC(C)=O)C(=O)O)c2ccccc2oc1=O (stereo partly specified) | > 500 |
| CC(=O)CC(c1ccccc1)c1c(Cl)c2ccccc2oc1=O (stereo unspecified) | > 500 |
| CC(=O)CC(C1=C(O)c2ccccc2C1=O)c1ccccc1 (stereo unspecified) | 3 |
| CC(C)=CCC/C(C)=C/CC/C(C)=C/CC1=C(O)c2ccccc2C(=O)C1=O | 0.13 |
| CCCCCCCC/C=C\CCCCCCCCc1c(O)c2ccccc2oc1=O | 0.9 |
| CC(C)=CCC/C(C)=C/CC/C(C)=C/Cc1c(O)c2ccccc2oc1=O | 0.098 |
| COc1c(C(CC(C)=O)c2ccccc2)c(=O)oc2ccccc12 (stereo unspecified) | > 500 |
| CC(=O)CC(c1ccccc1)c1cc2ccccc2oc1=O (stereo unspecified) | > 500 |
| CC(=O)CC(c1ccccc1)c1c(S)c2ccccc2oc1=O (stereo unspecified) | 18.3 |
| CC(=O)CC(c1ccc([N+](=O)[O-])cc1)c1c(O)c2ccccc2oc1=O (stereo unspecified) [ACENOCOUMAROL] | 0.77 |
| O=c1oc2ccccc2c(O)c1C1CC(c2ccc(-c3ccc(Br)cc3)cc2)Cc2ccccc21 (stereo unspecified) [BRODIFACOUM] | 0.15 |
| O=c1oc2ccccc2c(O)c1Cc1c(O)c2ccccc2oc1=O [DICUMAROL] | 3.1 |
| CC(C)=CCC/C(C)=C/CC/C(C)=C/Cc1c(O)c2cc(C)c(C)cc2oc1=O [DIMETHYLFERULENOL] | 0.34 |
| CC(C)=CCc1c(O)c2ccccc2oc1=O [ISOPRENYLCOUMARIN] | 79 |
| CCC(c1ccccc1)c1c(O)c2ccccc2oc1=O (stereo unspecified) [PHENPROCOUMON] | 1.8 |
| CC(O)CC(c1ccccc1)c1c(O)c2ccccc2oc1=O (stereo unspecified) [WARFARIN ALCOHOL] | 12.5 |
| CC(=O)CC(c1ccccc1)c1c(OS(=O)(=O)C(F)(F)F)c2ccc(O)cc2oc1=O (stereo unspecified) [WARFARIN TRIFLATE] | > 500 |
| CC(=O)CC(c1ccccc1)c1c(O)c2ccccc2oc1=O (stereo unspecified) [WARFARIN] | 2.2 |
